The subject of one data set is Plasmodium falciparum. Briefly: microbe, parasite or virus in culture. To be noted: W2.
Data set [1] can be described thus: Octanol-water partition coefficient, log D of the compound at pH 7.4. Format: physicochemical.
A further data set has as its system Trypanosoma cruzi. As to the kind of experiment: Antitrypanosomal activity against Trypanosoma cruzi Tulahuen 2 infected in african green monkey Vero cells expressing red fluorescent protein after 3 days by fluorescence analysis. Format: functional, organism-based. To be noted: Tulahuen 2, Vero, 72 h.
For data set [2], the system named is Vero. As to the kind of experiment: Cytotoxicity against african green monkey Vero cells at 25 uM after 3 days. It counts as cell-based. As to conditions: chlorocebus sabaeus, 72 h.
The subject of data set [3] is Vero. As to the kind of experiment: Cytotoxicity against african green monkey Vero cells at 6.25 uM after 3 days. Format: cell-based. To be noted: chlorocebus sabaeus, 72 h.

Description for Plasmodium falciparum: Antiplasmodial activity against Plasmodium falciparum W2 infected in human erythrocytes

For orientation: IC50 means the point on the concentration scale where inhibition reaches its midpoint. As a reminder, the logD is lipophilicity at a set pH, counting ionised and neutral species. Compound `CC1=C(CCCCCCCCCC[P+](C)(C)C)C(=O)c2ccccc2C1=O` yielded an IC50 in the data set with Plasmodium falciparum of 404 nM. In addition, the logD in data set [1] is 1.95.

`C[P+](C)(C)CCCCCCCCCCN1C(=O)c2ccccc2C1=O` had an IC50 in the data set on Plasmodium falciparum of more than 10000 nM. The logD in data set [1] is recorded as -0.08.

Turning to `O=C1c2ccccc2C(=O)N1CCCC[P+](c1ccccc1)(c1ccccc1)c1ccccc1`, half-maximal inhibition in the data set with Plasmodium falciparum (IC50) was put at 3500 nM. In addition, in data set [1], the logD came to 0.01.

In the data set with Plasmodium falciparum, `O=C1c2ccccc2C(=O)N1CCCCCC[P+](c1ccccc1)(c1ccccc1)c1ccccc1` showed an IC50 of 1020 nM. Further, the logD in data set [1] is 1.14.

In turn, `O=C1c2ccccc2C(=O)N1CCCCCCCCCC[P+](c1ccc(F)cc1)(c1ccc(F)cc1)c1ccc(F)cc1` came in with an IC50 in the data set on Plasmodium falciparum of 346 nM. The compound further yielded a logD in data set [1] of 2.13.

In turn, `O=C1c2ccccc2C(=O)N1CCCCCCCCCC[P+](Cc1ccccc1)(Cc1ccccc1)Cc1ccccc1` gave an IC50 with Plasmodium falciparum of 288 nM. The compound further registered a logD in data set [1] of 1.37.

`CCCC[P+](CCCC)(CCCC)CCCCCCCCCCN1C(=O)c2ccccc2C1=O` returned an IC50 with Plasmodium falciparum of 194 nM. The compound further gave a logD in data set [1] of 3.68.

In the case of `O=C1c2ccccc2C(=O)N1CCCCCCCCCC[P+](c1ccccc1)(c1ccccc1)c1ccccc1`, in the data set with Plasmodium falciparum, the 50% inhibitory concentration (IC50) stood at 173 nM. The logD in data set [1] is recorded as 1.67.

Compound `Cc1ccccc1[P+](CCCCCCCCCCN1C(=O)c2ccccc2C1=O)(c1ccccc1C)c1ccccc1C` yielded an IC50 in the data set with Plasmodium falciparum of 143 nM. Also, the logD in data set [1] is recorded as -0.75.

Compound `O=C1c2ccccc2C(=O)N1CCCCCCCCCC[P+](C1CCCCC1)(C1CCCCC1)C1CCCCC1` yielded an IC50 with Plasmodium falciparum of 141 nM. For the same compound, the logD in data set [1] was 4.5.

In the data set with Plasmodium falciparum, `COc1ccc([P+](CCCCCCCCCCN2C(=O)c3ccccc3C2=O)(c2ccc(OC)cc2)c2ccc(OC)cc2)cc1` had an IC50 of 134 nM. The logD in data set [1] is 3.19.

Consider `O=C1C=C(NCC[P+](c2ccccc2)(c2ccccc2)c2ccccc2)C(=O)c2ccccc21`, for which inhibition with Plasmodium falciparum was half-maximal at 520 nM (IC50). The compound further returned a logD in data set [1] of -1.08.

In the data set on Plasmodium falciparum, `O=C1C=C(NCCCCCCCCCC[P+](c2ccc(F)cc2)(c2ccc(F)cc2)c2ccc(F)cc2)C(=O)c2ccccc21` yielded an IC50 of 292 nM. Besides, in data set [1], the logD was found to be 1.67.

In turn, `O=C1C=C(NCCCCCCCCCC[P+](Cc2ccccc2)(Cc2ccccc2)Cc2ccccc2)C(=O)c2ccccc21` came in with an IC50 with Plasmodium falciparum of 215 nM. In data set [1], this compound showed a logD of 2.8.

In the data set on Plasmodium falciparum, `COc1ccc([P+](CCCCCCCCCCNC2=CC(=O)c3ccccc3C2=O)(c2ccc(OC)cc2)c2ccc(OC)cc2)cc1` came in with an IC50 of 134 nM. For the same compound, in data set [1], the logD turned out to be 4.37.

Turning to `O=C1C=C(NCCCCCCCCCC[P+](c2ccccc2)(c2ccccc2)c2ccccc2)C(=O)c2ccccc21`, the figures for the IC50 with Trypanosoma cruzi and in the data set with Plasmodium falciparum were 1600 nM and 114 nM, respectively. The Activity result in the data set with Vero [2] and in the data set on Vero [3] was “Toxic” in each case. In data set [1], this compound registered a logD of 3.6.

`O=C1C=C(NCCCCCCCCCC[P+](C2CCCCC2)(C2CCCCC2)C2CCCCC2)C(=O)c2ccccc21` yielded an IC50 with Plasmodium falciparum of 94.4 nM. This compound showed a logD in data set [1] of 3.41.

For `O=C1C=C(CCCCCCCCCC[P+](Cc2ccccc2)(Cc2ccccc2)Cc2ccccc2)C(=O)c2ccccc21`, the IC50 stood at 3000 nM with Trypanosoma cruzi and 1300 nM in the data set with Plasmodium falciparum. Besides, the Activity result in the data set with Vero [2] and in the data set on Vero [3] was “Non-toxic” in each case. This compound registered a logD in data set [1] of 5.32.

`O=C1C=C(CCCCCCCCCC[P+](c2ccc(F)cc2)(c2ccc(F)cc2)c2ccc(F)cc2)C(=O)c2ccccc21` showed an IC50 in the data set with Plasmodium falciparum of 846 nM. In addition, in data set [1], the logD is reported as 1.66.

For `O=C1C=C(CCCCCCCCCC[P+](c2ccccc2)(c2ccccc2)c2ccccc2)C(=O)c2ccccc21`, in the data set on Plasmodium falciparum, the IC50 was 259 nM. The logD in data set [1] turned out to be 4.08.

The compound `O=C1C=C(CCCCC[P+](c2ccccc2)(c2ccccc2)c2ccccc2)C(=O)c2ccccc21` had an IC50 in the data set on Plasmodium falciparum of 157 nM. The compound further yielded a logD in data set [1] of 1.

In the data set on Plasmodium falciparum, `CC1=C(CCCCC[P+](C)(C)C)C(=O)c2ccccc2C1=O` returned an IC50 of 956 nM. Moreover, the logD in data set [1] stood at 0.21.

On to `CC1=C(C[P+](c2ccccc2)(c2ccccc2)c2ccccc2)C(=O)c2ccccc2C1=O`, for which the IC50 in the data set on Plasmodium falciparum was 543 nM. In addition, the logD in data set [1] amounted to 1.89.

`CC1=C(CCCCCCCCCC[P+](Cc2ccccc2)(Cc2ccccc2)Cc2ccccc2)C(=O)c2ccccc2C1=O`: the half-maximal inhibitory concentration (IC50) was 3700 nM in the data set on Trypanosoma cruzi and 212 nM in the data set with Plasmodium falciparum. In addition, the Activity entry in the data set on Vero [2] was “Toxic”; in the data set on Vero [3], “Non-toxic”. Moreover, in data set [1], the logD turned out to be 6.64.

Turning to `CCCC[P+](CCCC)(CCCC)CCCCCCCCCCC1=C(C)C(=O)c2ccccc2C1=O`, the half-inhibitory concentration (IC50) in the data set on Trypanosoma cruzi was determined as 4000 nM; in the data set on Plasmodium falciparum, 156 nM. Besides, the Activity result with Vero [2] is reported as “Toxic”; with Vero [3], “Non-toxic”. In data set [1], the logD stood at 5.1.

With `CC1=C(CCCCCCCCCC[P+](c2ccccc2C)(c2ccccc2C)c2ccccc2C)C(=O)c2ccccc2C1=O`, half-maximal inhibition in the data set with Plasmodium falciparum (IC50) required 143 nM. The compound also showed a logD in data set [1] of 3.58.

Turning to `CC1=C(CCCCCCCCCC[P+](c2ccccc2)(c2ccccc2)c2ccccc2)C(=O)c2ccccc2C1=O`, the IC50 in the data set with Trypanosoma cruzi stood at 1600 nM; in the data set with Plasmodium falciparum, 143 nM. Also, the Activity entry in the data set with Vero [2] and in the data set on Vero [3] was “Toxic” in each case. In addition, the logD in data set [1] was found to be 3.97.

On to `CC1=C(CCCCCCCCCC[P+](C2CCCCC2)(C2CCCCC2)C2CCCCC2)C(=O)c2ccccc2C1=O`, for which the values for the IC50 in the data set on Trypanosoma cruzi and with Plasmodium falciparum were 2400 nM and 134 nM, respectively. Besides, the Activity result is listed as “Toxic” with Vero [2] and “Non-toxic” in the data set with Vero [3]. This compound registered a logD in data set [1] of 3.64.

Consider `COc1ccc([P+](CCCCCCCCCCC2=C(C)C(=O)c3ccccc3C2=O)(c2ccc(OC)cc2)c2ccc(OC)cc2)cc1`, for which, in the data set on Plasmodium falciparum, half-maximal inhibition (IC50) required 131 nM. The compound also had a logD in data set [1] of 3.52.

Take `CC1=C(CCCCC[P+](c2ccccc2)(c2ccccc2)c2ccccc2)C(=O)c2ccccc2C1=O`: the IC50 was determined as 5400 nM with Trypanosoma cruzi and 48.3 nM with Plasmodium falciparum. Also, the Activity result with Vero [2] is “Toxic”; with Vero [3] it was “Non-toxic”. For the same compound, the logD in data set [1] is recorded as 2.15.

As to `CC1=C(CCCC[P+](c2ccccc2)(c2ccccc2)c2ccccc2)C(=O)c2ccccc2C1=O`, the IC50 is 2700 nM with Trypanosoma cruzi and 18.7 nM in the data set with Plasmodium falciparum. Also, the Activity result in the data set with Vero [2] and in the data set on Vero [3] was “Non-toxic” each time. This compound also yielded a logD in data set [1] of 1.91.

`CCCCCCCCCNC1=CC(=O)c2ccccc2C1=O`: the IC50 with Trypanosoma cruzi was 17300 nM; with Plasmodium falciparum, more than 10000 nM. Moreover, the Activity entry in the data set with Vero [2] and in the data set on Vero [3] was “Non-toxic” each time.

Regarding `CCCCCCCCCCC1=CC(=O)c2ccccc2C1=O`, the IC50 in the data set with Trypanosoma cruzi was 9300 nM; in the data set on Plasmodium falciparum, more than 10000 nM. The Activity entry with Vero [2] and in the data set with Vero [3] was “Non-toxic” each time.

`CCCCCCCCCCN1C(=O)c2ccccc2C1=O` registered an IC50 in the data set on Plasmodium falciparum of more than 10000 nM.

`C[C@@H]1CC[C@H]2[C@@H](C)C(=O)O[C@@H]3O[C@@]4(C)CC[C@@H]1[C@]32OO4` [ARTEMISININ]: in the data set with Plasmodium falciparum, the midpoint of inhibition, the IC50, lay at 7.31 nM.

The compound `O=C1C(O)=C([C@H]2CC[C@H](c3ccc(Cl)cc3)CC2)C(=O)c2ccccc21` [ATOVAQUONE] came in with an IC50 with Plasmodium falciparum of 0.28 nM.

Take `O=C(Cn1ccnc1[N+](=O)[O-])NCc1ccccc1` [BENZNIDAZOLE]: the Activity result in the data set on Vero [2] and with Vero [3] was “Non-toxic” in each case.

In the data set on Plasmodium falciparum, `CCCC[P+](c1ccccc1)(c1ccccc1)c1ccccc1` [BUTYLTRIPHENYLPHOSPHONIUM] displayed an IC50 of 3500 nM.

In turn, `CCCCCCCCCC[P+](c1ccccc1)(c1ccccc1)c1ccccc1` [DECYLTRIPHENYLPHOSPHONIUM] gave an IC50 in the data set with Plasmodium falciparum of 142 nM.

The record behind these values is ChEMBL document CHEMBL2016476, “Phosphonium lipocations as antiparasitic agents” (Bioorg Med Chem Lett, 2012).
